# Laboratory results as given in patent US7671054B1, “Reverse-turn mimetics and method relating thereto” (Choongwae Pharma Corporation, priority 2001, dated 2010).
# Legend:
# Type in all cases: cell-based
# [1] = tested on: T84; assay: Sulforhodamine B (SRB) assay; details: Homo sapiens; T84, Colon; 48 hours; read-out: GI50 (SRB in vitro cytotoxicity)
# Method: (§1) Growth inhibitory effect of Compound A on the cells listed below was measured by the sulforhodamine B assay. SW480 cells in 100 μl media were plated in each well of 96-well plate and allowed to attach for 24 hours. Compound A was added to the wells to produce the desired final concentrations, and the plates were incubated at 37° C. for 48 hours. The cells were then fixed by gentle addition of 100 μl of cold (4° C.) 10% trichloroacetic acid to each well, followed by incubation at 4° C. for 1 hour. Plates were washed with deionized water five times and allowed to air dry. The cells were then stained by addition of 100 μl SRB solution (0.4% SRB(w/v) in 1% acetic acid (v/v)) to wells for 15 min. After staining, the plates were quickly washed five times with 1% acetic acid to remove any unbound dye, and allowed to air dry. Bound dye was solubilized with 10 mmol/L Tris base (pH 10.5) prior to reading the plates. The optical density (OD) was read on a plate reader at a wavelength of 515 nm with Molecular Device. Inhibition of growth was expressed as relative viability (% of control) and GI50 was calculated from concentration-response curves after log/probit transformation.
# [2] = tested on: HT29; assay: Sulforhodamine B (SRB) assay; details: Homo sapiens, HT-29; HT29, Colon; 48 hours; read-out: GI50 (SRB in vitro cytotoxicity)
# Method: as §1
# [3] = tested on: HT1080; assay: Sulforhodamine B (SRB) assay; details: Homo sapiens, HT-1080; HT1080, listed under Prostate; 48 hours; read-out: GI50 (SRB in vitro cytotoxicity)
# Method: as §1
# [4] = Sulforhodamine B (SRB) assay; details: human, 293 cells (renal), 293, Renal, read-out: GI50 (SRB in vitro cytotoxicity)
# Method: as §1
# [5] = tested on: HL60; assay: Sulforhodamine B (SRB) assay; details: Homo sapiens, HL-60; HL60, Leukemia; 48 hours; read-out: GI50 (SRB in vitro cytotoxicity)
# Method: as §1
# [6] = tested on: HCT15; assay: Sulforhodamine B (SRB) assay; details: Homo sapiens, HCT-15; HCT15, Colon; 48 hours; read-out: GI50 (SRB in vitro cytotoxicity)
# Method: as §1
# [7] = tested on: DLD-1; assay: Sulforhodamine B (SRB) assay; details: Homo sapiens; DLD-1, Colon; 48 hours; read-out: GI50 (SRB in vitro cytotoxicity)
# Method: as §1
# [8] = tested on: RPM17951; assay: Sulforhodamine B (SRB) assay; details: RPM17951, Melanoma; 48 hours; read-out: GI50 (SRB in vitro cytotoxicity)
# Method: as §1
# [9] = tested on: CAKI-1; assay: Sulforhodamine B (SRB) assay; details: Homo sapiens; CAKI-1, Renal; 48 hours; read-out: GI50 (SRB in vitro cytotoxicity)
# Method: as §1
# [10] = tested on: A253; assay: Sulforhodamine B (SRB) assay; details: Homo sapiens; A253, Melanoma; 48 hours; read-out: GI50 (SRB in vitro cytotoxicity)
# Method: as §1
# [11] = tested on: M14; assay: Sulforhodamine B (SRB) assay; details: Homo sapiens; M14, Melanoma; 48 hours; read-out: GI50 (SRB in vitro cytotoxicity)
# Method: as §1
# [12] = tested on: SW480-Kribb; assay: Sulforhodamine B (SRB) assay; details: Colon, 48 hours, read-out: GI50 (SRB in vitro cytotoxicity)
# Method: as §1
# [13] = tested on: HCC2998; assay: Sulforhodamine B (SRB) assay; details: Homo sapiens, HCC 2998; HCC2998, Colon; 48 hours; read-out: GI50 (SRB in vitro cytotoxicity)
# Method: as §1
# [14] = tested on: HCT116; assay: Sulforhodamine B (SRB) assay; details: Homo sapiens, HCT-116; HCT116, Colon; 48 hours; read-out: GI50 (SRB in vitro cytotoxicity)
# Method: as §1
# [15] = tested on: UACC62; assay: Sulforhodamine B (SRB) assay; details: Homo sapiens, UACC-62; UACC62, Melanoma; 48 hours; read-out: GI50 (SRB in vitro cytotoxicity)
# Method: as §1
# [16] = tested on: A549; assay: Sulforhodamine B (SRB) assay; details: Homo sapiens; A549, Lung; 48 hours; read-out: GI50 (SRB in vitro cytotoxicity)
# Method: as §1
# [17] = tested on: KM12; assay: Sulforhodamine B (SRB) assay; details: Homo sapiens; KM12, Colon; 48 hours; read-out: GI50 (SRB in vitro cytotoxicity)
# Method: as §1
# [18] = tested on: G361; assay: Sulforhodamine B (SRB) assay; details: Homo sapiens, G-361; G361, Melanoma; 48 hours; read-out: GI50 (SRB in vitro cytotoxicity)
# Method: as §1
# [19] = tested on: A431; assay: Sulforhodamine B (SRB) assay; details: Homo sapiens, A-431; A431, Melanoma; 48 hours; read-out: GI50 (SRB in vitro cytotoxicity)
# Method: as §1
# [20] = tested on: K562; assay: Sulforhodamine B (SRB) assay; details: Homo sapiens; K562, Leukemia; 48 hours; read-out: GI50 (SRB in vitro cytotoxicity)
# Method: as §1
# [21] = tested on: LOVO; assay: Sulforhodamine B (SRB) assay; details: Homo sapiens, Colon, 48 hours, read-out: GI50 (SRB in vitro cytotoxicity)
# Method: as §1
# [22] = tested on: SW480-CWP; assay: Sulforhodamine B (SRB) assay; details: Colon, 48 hours, read-out: GI50 (SRB in vitro cytotoxicity)
# Method: as §1
# [23] = tested on: SK-MEL-28; assay: Sulforhodamine B (SRB) assay; details: Homo sapiens; SK-MEL-28, Melanoma; 48 hours; read-out: GI50 (SRB in vitro cytotoxicity)
# Method: as §1
# [24] = tested on: ACHN; assay: Sulforhodamine B (SRB) assay; details: Homo sapiens, Renal, 48 hours, read-out: GI50 (SRB in vitro cytotoxicity)
# Method: as §1
# [25] = tested on: K562/VIN; assay: Sulforhodamine B (SRB) assay; details: Homo sapiens, Leukemia, 48 hours, read-out: GI50 (SRB in vitro cytotoxicity)
# Method: as §1
# [26] = tested on: NCI H23; assay: Sulforhodamine B (SRB) assay; details: Homo sapiens; NCI H23, Lung; 48 hours; read-out: GI50 (SRB in vitro cytotoxicity)
# Method: as §1
# [27] = tested on: HMV-II; assay: Sulforhodamine B (SRB) assay; details: Melanoma, 48 hours, read-out: GI50 (SRB in vitro cytotoxicity)
# Method: as §1
# [28] = tested on: HMV-I; assay: Sulforhodamine B (SRB) assay; details: Melanoma, 48 hours, read-out: GI50 (SRB in vitro cytotoxicity)
# Method: as §1
smiles,measurement,setting,value
"O=c1[nH]cc(F)c(=O)[nH]1 [Compound 5-FU, 5-fluorouracil]",GI50,[1],1.82 µg/mL
same,GI50,[2],5.33 µg/mL
same,GI50,[3],0.798 µg/mL
same,GI50 at 48 h,[4],2.02 µg/mL
same,GI50,[5],7.01 µg/mL
same,GI50,[6],1.18 µg/mL
same,GI50,[7],> 10 µg/mL
same,GI50,[8],0.92 µg/mL
same,GI50,[9],0.925 µg/mL
same,GI50,[10],2.93 µg/mL
same,GI50,[11],1.23 µg/mL
same,GI50,[12],> 10 µg/mL
same,GI50,[13],5.49 µg/mL
same,GI50,[14],1.04 µg/mL
same,GI50,[15],1.09 µg/mL
same,GI50,[16],1.01 µg/mL
same,GI50,[17],2.73 µg/mL
same,GI50,[18],1.54 µg/mL
same,GI50,[19],0.404 µg/mL
same,GI50,[20],6.13 µg/mL
same,GI50,[21],1.03 µg/mL
same,GI50,[22],> 10 µg/mL
same,GI50,[23],> 10 µg/mL
same,GI50,[24],5.06 µg/mL
same,GI50,[25],7.07 µg/mL
same,GI50,[26],2.25 µg/mL
same,GI50,[27],0.695 µg/mL
same,GI50,[28],2.11 µg/mL
